The numbers were not newly measured in patent US10765664B2, “Treatment of infectious diseases” (CHILDREN'S MEDICAL CENTER CORPORATION, priority 2015, dated 2020), which cites them from elsewhere.

The test system of this data set is nonreplicating MTb. The settings on record: extremely high inocula; cited from earlier work.

Take `CC(=O)Oc1ccccc1C(=O)Nc1ncc([N+](=O)[O-])s1` [NTZ, [2-[(5-nitro-1,3-thiazol-2-yl)carbamoyl]phenyl] ethanoate]: the resistance mutants entry is “no evidence of resistance mutants”.
